Converted amounts (≈) assume the structure as drawn. One block for each compound: values may come before it. The source made the active and inactive calls. No cut-off for these calls is given here.
How the values were obtained:
Candida albicans = assay: Antifungal activity against Candida albicans; assay type: functional
Aspergillus niger = assay: Antifungal activity against Aspergillus niger; assay type: functional
Aspergillus flavus = assay: Antifungal activity against Aspergillus flavus; assay type: functional
Colletotrichum lagenaria = assay: Fungicidal activity against Colletotrichum lagenarium assessed as fungal inhibitory rate at 16 ug/ml relative to control; assay type: functional
Penicillium digitatum = assay: Fungicidal activity against Penicillium digitatum assessed as fungal inhibitory rate at 16 ug/ml relative to control; assay type: functional
Botrytis cinerea [1] = assay: Induction of morphological changes in Botrytis cinerea assessed as uneven mycelia at 0.5 ug/ml incubated for 6 days by SEM analysis; assay type: functional, organism-based; settings: dose 0.5 µg/ml, time 6.0 day
Fusarium oxysporum = assay: Fungicidal activity against Fusarium oxysporum assessed as fungal inhibitory rate at 16 ug/ml relative to control; assay type: functional
[2] = Inhibition of Botrytis cinerea CYP51 by ELISA
Sclerotinia sclerotiorum = assay: Fungicidal activity against Sclerotinia sclerotiorum assessed as fungal inhibitory rate at 16 ug/ml relative to control; assay type: functional
Botrytis cinerea [3] = assay: Fungicidal activity against Botrytis cinerea assessed as fungal inhibitory rate at 16 ug/ml relative to control; assay type: functional
Botrytis cinerea [4] = assay: Inhibition of Botrytis cinerea CYP51 by fluorescent quenching analysis; settings: dose <= 16.0 µg/ml
Botrytis cinerea [5] = assay: Fungicidal activity against Botrytis cinerea assessed as fungal growth reduction; assay type: functional, organism-based
Botrytis cinerea [6] = assay: Induction of morphological changes in Botrytis cinerea assessed as irregular mycelia at 0.5 ug/ml incubated for 6 days by SEM analysis; assay type: functional, organism-based; settings: dose 0.5 µg/ml, time 6.0 day
Botrytis cinerea [7] = assay: Induction of morphological changes in Botrytis cinerea assessed as tangled mycelia at 0.5 ug/ml incubated for 6 days by SEM analysis; assay type: functional, organism-based; settings: dose 0.5 µg/ml, time 6.0 day
Botrytis cinerea [8] = assay: Induction of morphological changes in Botrytis cinerea assessed as crinkly mycelia at 0.5 ug/ml incubated for 6 days by SEM analysis; assay type: functional, organism-based; settings: dose 0.5 µg/ml, time 6.0 day
Botrytis cinerea [9] = assay: Induction of morphological changes in Botrytis cinerea assessed as thin cell membrane at 0.5 ug/ml incubated for 6 days by TEM analysis; assay type: functional, organism-based; settings: dose 0.5 µg/ml, time 6.0 day
Botrytis cinerea [10] = assay: Induction of morphological changes in Botrytis cinerea assessed as cracked cell structure at 0.5 ug/ml incubated for 6 days by TEM analysis; assay type: functional, organism-based; settings: dose 0.5 µg/ml, time 6.0 day
Botrytis cinerea [11] = assay: Induction of morphological changes in Botrytis cinerea assessed as thin cell wall at 0.5 ug/ml incubated for 6 days by TEM analysis; assay type: functional, organism-based; settings: dose 0.5 µg/ml, time 6.0 day
Alternaria alternata = assay: Antifungal activity against Alternaria alternata assessed as fungal inhibition rate at 100 ug/ml relative to control; assay type: functional
Alternaria solani = assay: Antifungal activity against Alternaria solani assessed as fungal inhibition rate at 100 ug/ml relative to control; assay type: functional

Compound: CC1(C)CC(=O)C2=C(C1)OC(N)=C(C#N)C2c1ccc(F)cc1 (stereo not drawn)
- MIC (Aspergillus niger): 12.5 µg/mL (≈ 40 µM)
- MIC (Aspergillus flavus): 12.5 µg/mL (≈ 40 µM)

Compound: COC(=O)C1=C(N)OC2=C(CN(C(=O)c3ccco3)C/C2=C\c2ccc(Br)o2)C1c1ccc(Br)o1 (stereo not drawn)
- inhibition at 16 µg/mL (Colletotrichum lagenaria): 84.9%
- inhibition at 16 µg/mL (Penicillium digitatum): 76%
- Activity (Botrytis cinerea [1]): Active
- inhibition at 16 µg/mL (Fusarium oxysporum): 83.5%
- IC50 [2]: 0.611 µg/mL (≈ 1.01 µM)
- inhibition at 16 µg/mL (Sclerotinia sclerotiorum): 82.7%
- inhibition at 16 µg/mL (Botrytis cinerea [3]): 100%
- inhibition (Botrytis cinerea [4]): Dose-Dependent Effect
- EC50 (Botrytis cinerea [5]): 0.53 µg/mL (≈ 0.874 µM)
- Activity (Botrytis cinerea [6]): Active
- Activity (Botrytis cinerea [7]): Active
- Activity (Botrytis cinerea [8]): Active
- Activity (Botrytis cinerea [9]): Active
- Activity (Botrytis cinerea [10]): Active
- Activity (Botrytis cinerea [11]): Active

Compound: Fc1ccc([C@@]2(Cn3cncn3)O[C@@H]2c2ccccc2Cl)cc1
- inhibition at 16 µg/mL (Colletotrichum lagenaria): 94.3%
- inhibition at 16 µg/mL (Penicillium digitatum): 78.6%
- Activity (Botrytis cinerea [1]): Active
- inhibition at 16 µg/mL (Fusarium oxysporum): 87.3%
- IC50 [2]: 0.802 µg/mL (≈ 2.43 µM)
- inhibition at 16 µg/mL (Sclerotinia sclerotiorum): 100%
- inhibition at 16 µg/mL (Botrytis cinerea [3]): 100%
- inhibition (Botrytis cinerea [4]): Dose-Dependent Effect
- EC50 (Botrytis cinerea [5]): 0.67 µg/mL (≈ 2.03 µM)
- Activity (Botrytis cinerea [6]): Active
- Activity (Botrytis cinerea [7]): Active
- Activity (Botrytis cinerea [8]): Active
- Activity (Botrytis cinerea [9]): Active
- Activity (Botrytis cinerea [10]): Active
- Activity (Botrytis cinerea [11]): Active

Compound: Cc1cc(C)c2c(=O)oc3cc(OC(=O)C(C)Br)ccc3c2n1 (stereo not drawn)
- inhibition at 100 µg/mL (Alternaria alternata): 41.6%
- inhibition at 100 µg/mL (Alternaria solani): 52.4%

Compound: CCCC(Br)C(=O)Oc1ccc2c(c1)oc(=O)c1c(C)c(C(=O)OCC)c(C)nc12 (stereo not drawn)
- inhibition at 100 µg/mL (Alternaria alternata): 44.6%
- inhibition at 100 µg/mL (Alternaria solani): 40.7%

Compound: CCOC(=O)c1c(C)nc2c(c1C)c(=O)oc1c(OC(=O)C(Br)CC)cccc12 (stereo not drawn)
- inhibition at 100 µg/mL (Alternaria alternata): 62.1%
- inhibition at 100 µg/mL (Alternaria solani): 54.6%

Second part, the compound after the results:

- MIC (Candida albicans): 12.5 µg/mL (≈ 26.9 µM)
Compound: COc1ccc(NC(=O)c2cc3c(CO)cnc(C)c3o/c2=N\c2ccc(Cl)c(C)c2)cc1

- MIC (Aspergillus niger): 12.5 µg/mL (≈ 44 µM)
- MIC (Candida albicans): 12.5 µg/mL (≈ 44 µM)
Compound: CC1(C)CC(=O)C2=C(C1)OC(N)=C(C#N)C2c1ccco1 (stereo not drawn)

- MIC (Aspergillus flavus): 12.5 µg/mL (≈ 43.4 µM)
- MIC (Candida albicans): 12.5 µg/mL (≈ 43.4 µM)
Compound: COC(=O)C1=C(C)OC(N)=C(C#N)C1c1ccc(F)cc1 (stereo not drawn)
